Tests used:
tau phosphorylation = settings: previously reported; cited from earlier work
[1] = tested on: pTau in AD-in-a-dish model; test: Validation of SMART-predicted compounds in the reformatted high content AD-in-a-dish model; design: species or system human; settings: cell-based validation of 26 purchased SMART predictions
Source text: Twenty-two of the 38 aforementioned screening hits had LINCS data covering the perturbation profiles for at least 4 cell lines. From these 22 hits, 2 were eliminated because no known drug candidates ranked high enough based on transcriptomic similarities to these two primary hits; and 3 others were removed upon inspection of the compound properties of the predictions they made, i.e., the predicted drugs may be toxic or unfit for systematic use. Thus, the 17 primary hits shown in Table 1 were used to initiate a pilot run using the SMART framework. The cMAP algorithm^7 was used to rank all compounds in the LINCSCloud, based on the similarity of transcriptomic profiles to each of the 17 primary hits. If any compound was determined by cMAP algorithm to have a similarity score larger than 90 to at least one of the primary hits, it was identified as a hit candidate. After filtering based on pharmacology features, 85 candidates predicted by 17 primary hits (Table 1) remained; 26 of these 85 compounds were purchased for validation after analysis for pharmacology and medical practice features.

[2] = tested on: 3D AD cell model transcriptome; test: Whole genome RNAseq after compound treatment versus control; assay type: cell-based, human; settings: for immune and inflammatory related pathways (5 of 6 connected to 12 down-regulated genes): after treatment versus control; for down-regulated genes in PPI subnetwork, shared by both treatments / up-regulated genes in PPI subnetwork, shared by both treatments: |log FC|>1.5 versus control
Source text: PPI information was extracted from STRING database version 10.5 with the cutoff for confidence score at 0.4.
Given ebselen and leflunomide in FIG. 17, an unbiased whole genome RNAseq analysis was used to obtain transcriptomic profiles after the treatment of each compound and compare them separately to control conditions. For both treatments, a subset of genes and pathways show significant change (|log FC|>1.5) in the same direction over control condition. […] These 22 genes have 102 PPI pairs among them, and there are 7 genes directly connected to APP (coding Aβ) or MAPT (coding Tau).
It's worth noting that the enrichment of immune and inflammatory related pathway changes is consistent with the characteristics of the 3D cell model, as this system contains astrocytes, which is one of the brain innate immune cells. […] Also, neuroinflammatory pathways are highly unregulated in high Abeta42/40 lines (D4 and H10) as compared to A5 (similar to GA2) (data not shown).

3D AD model (#A5) = test: RNA-seq canonical pathway analysis of 3D AD cultures treated with anti-Aβ drugs; assay type: cell-based, human; settings: anti-Aβ drug treatment versus DMSO
Source text: FIG. 15. […] Pearson correlations of global gene expression profile among 2D undifferentiated control ReN cells, 3D control (G2# B2on), AD # A5 (# A5, moderate Aβ42/40 ratio ˜0.2), AD # D4 (# D4, high Aβ42/40 ratio, ˜1.4), and AD # H10 (# H10, extra high Aβ42/40 ratio, ˜1.7). Units are log CPM. b. Volcano plots show −log10(FDR) vs log FC distribution for G2# B2 (control) vs AD # A5 (AD), AD # A5 DMSO vs AD # A5 BSI (BACE inhibitor, Ly2886721), and AD # A5 DMSO vs AD # A5 GSM (gamma secretase modulator, SGSM15606) transcriptomic signatures. […] Canonical pathway analysis between G2# B2 and AD # A5 (Ingenuity pathway analysis, Qiagen). d. Analysis of common canonical pathways. The pathway analysis among G2# B2 vs AD # A5, AD # A5 DMSO vs AD # A5 BSI, and AD # A5 DMSO vs AD # A5 GSM. Activation z-scores indicate that majority of decreased pathways in AD # A5 are restored by BSI and/or GSM treatments. e. […]
To examine the multiple single-clonal AD models, unbiased whole genome RNA-seq analyses were performed to compare gene expression profiles among the clonal AD models with different Aβ42/40 ratios, as compared to control 3D cultures and undifferentiated 2D control cells (FIG. 15a-d). […] Differential gene expression profile of 3D AD cultures were analyzed after treating anti-Aβ drugs (BACE1 inhibitor, Ly2886721; Gamma-secretase modulator (GSM), GSM15606) (FIG. 15b). […]

[3] = tested on: phospho-tau (AT8) in ReNCell VM cells carrying the APPSL mutation; test: High-content screen of phospho-tau (AT8) staining in 3D cultured FAD neural stem cells; assay type: cell-based, human; settings: for inhibition of pTau / tau hyperphosphorylation: primary screen of 2,640 compounds, compound added from the beginning of culture, whole-well AT8 images
Source text: FIG. 1. High-content screening. FAD-transfected neural stem cells were 3D cultured in matrigel and treated with each compound. Cells were stained with phospho-tau antibody (AT8). Images covering the whole well were taken and quantified as the readout.
A 3D human neural culture model of AD was developed by culturing ReNCell VM cells carrying the APPSL mutation in a thin layer (50˜100 μm thick) of Matrigel. This method was then miniaturized to 96, 384, or other high content well plate formats (FIG. 1) to provide a faithful model for testing the effect of compounds on AD. However, the high-throughput screening is limited by its readout of microscopy images, which cannot be analyzed manually in large quantity.
To enable high-throughput in vitro screening, an image-processing program was developed, based on NeuriteIQ software^17-23 (FIG. 2A), to automatically quantify tau phosphorylation from images of cultured cells. The program processes images from th e nucleus and neurite channels separately. In the nucleus channel, nuclei are detected and segmented by local maximum detection and watershed method. In the neurite channel, phospho-tau stained cells are treated as two-dimensional curvilinear structures and processed based on the local Hessian matrix^24,25, which allows the detection of center points and local directions of neurites in a field. The program reliably quantified the number of neurons with hyper-phosphorylated tau (FIG. 2B). Thus, a high-content screening system for the identification of compounds targeting the tau pathology in AD was established.
Known drug and bioactive compounds (2,640 compounds) were selected for the initial screen from the Sigma-Aldrich LOPAC (1280), Tocriscreen Total Library (1120), and a manual selection of 240 Kinase Inhibitors. […] A few of the 38 compounds have been previously reported to inhibit tau phosphorylation in AD animal models (e.g., baicalein^26 and tretinoin^27), further validating the credibility of the screen. Most, however, are novel AD candidates.

p-tau (pSer396/Ser404) = test: Quantitative immunofluorescence staining in 3D AD models with high Aβ42/40 ratios; assay type: cell-based, human; settings: 5 μM for 3 weeks
Source text: FIG. 17. Validation of primary hit candidates. Primary hit candidates were confirmed using Western blot analysis (a) and quantitative immunofluorescence staining in 3D AD models with high Aβ42/40 ratios (# HReN and # A4H1) (b). PHF1 pSer396/Ser404 tau antibody was used to detect changes in phospho tau in 3D AD # HReN cells treated with DMSO vehicle, ebselen, or leflunomide.
In addition to MSD Mesoscale ELISA shown in FIG. 16, quantitative Western blot and immunofluorescence analysis were used to validate candidate drugs. […] Ebselen and leflunomide are compounds screened from original HCS screening of […] biologically active/FDA-approved drug library. […] Moreover, quantitative immunofluorescence staining was used to analyze p-tau changes after treating these compounds.

## CC1=C(/C=C/C(C)=C/C=C/C(C)=C/C(=O)O)C(C)(C)CCC1 [retinoic acid]
Tau phosphorylation
  tau phosphorylation in AD animal models: inhibit

## C1CCC(C(CC2CCCCN2)C2CCCCC2)CC1.O=C(O)/C=C\C(=O)O (centres unmarked) [Perhexiline, perhexiline maleate]
[1]
  inhibition of pTau: successful predictions

## O=c1c2ccccc2[se]n1-c1ccccc1 [ebselen]
[2]
  immune and inflammatory related pathways (5 of 6 connected to 12 down-regulated genes): significantly down-regulated
  down-regulated genes in PPI subnetwork, shared by both treatments: 15 genes
  up-regulated genes in PPI subnetwork, shared by both treatments: 7 genes

## NC1=N[C@@]2(c3cc(NC(=O)c4ccc(F)cn4)ccc3F)COC[C@H]2CS1 [Ly2886721]
3D AD model (#A5)
  enriched canonical pathways of the 3D AD model: significantly altered

## O=c1cc(-c2ccccc2)oc2cc(O)c(O)c(O)c12 [baicalein]
Tau phosphorylation
  tau phosphorylation in AD animal models: inhibit

## CCC(C)[C@H]1O[C@]2(CC[C@@H]1C)C[C@@H]1C[C@@H](C/C=C(\C)[C@@H](O[C@H]3C[C@H](OC)[C@@H](O[C@H]4C[C@H](OC)[C@@H](O)[C@H](C)O4)[C@H](C)O3)[C@@H](C)/C=C/C=C3\CO[C@@H]4[C@H](O)C(C)=C[C@@H](C(=O)O1)[C@]34O)O2 (some centres unmarked) [ivermectin]
[3]
  inhibition of pTau / tau hyperphosphorylation: almost completely inhibited
[3]; listed as Ivermectin
  inhibition of pTau / tau hyperphosphorylation: most significant phenotype

## Cc1oncc1C(=O)Nc1ccc(C(F)(F)F)cc1 [leflunomide]
p-tau (pSer396/Ser404)
  cellular viability and neurite networks: without affecting
  p-tau (pSer396/Ser404) accumulation: robustly decreased
[2]
  immune and inflammatory related pathways (5 of 6 connected to 12 down-regulated genes): significantly down-regulated
  down-regulated genes in PPI subnetwork, shared by both treatments: 15 genes
  up-regulated genes in PPI subnetwork, shared by both treatments: 7 genes

## N=C(N)c1ccc(OCCCCCOc2ccc(C(=N)N)cc2)cc1 [pentamidine, pentamidine isethionate]
[3]
  inhibition of pTau / tau hyperphosphorylation: almost completely inhibited

## Oc1c(Cl)cc(Cl)c2cccnc12 [chloroxine]
[1]
  inhibition of pTau: validated hits

## CC[N+](CC)(CC)CCOc1ccc(/C=C/c2ccccc2)cc1 [MG624, mg 624]
[3]; compound added after week 2, when tau phosphorylation should have already developed
  tau phosphorylation, late addition: significantly reduced
[3]; compound added after week 4, cells fixed and stained at week 6
  tau phosphorylation, late addition: significantly reduced
[3]
  inhibition of pTau / tau hyperphosphorylation: almost completely inhibited

## COc1nc(-c2cc(C)c(NC(C)c3ccc(F)cc3)nn2)ccc1-n1cnc(C)c1 (centres unmarked) [GSM15606]
3D AD model (#A5)
  enriched canonical pathways of the 3D AD model: significantly altered

From US20200121666A1, “TAU PHOSPHORYLATION INHIBITORS AND METHODS FOR TREATING OR PREVENTING ALZHEIMER'S DISEASE” (THE METHODIST HOSPITAL SYSTEM, priority 2017, published 2020)
